Data taken from patent US7208500B2, “Thienopyridine-phenylacetamides and their derivatives useful as new anti-angiogenic agents” (Agouron Pharmaceuticals, Inc., priority 2003, dated 2007).

Legend:
[1] = test system: human umbilical vein endothelial cells (HUVEC); assay: HUVEC + VEGF proliferation assay; type: cell-based; conditions: VEGF-stimulated proliferation, final VEGF 6 ng/mL, 72 hours, MTT
Experimental: This assay determines the ability of a test compound to inhibit the growth factor-stimulated proliferation of human umbilical vein endothelial cells (“HUVEC”). HUVEC cells (passage 3–4, Clonetics, Corp.) were thawed into EGM2 culture medium (Clonetics Corp) in T75 flasks. Fresh EGM2 medium was added to the flasks 24 hours later. Four or five days later, cells were exposed to another culture medium (F12K medium supplemented with 10% fetal bovine serum (FBS), […] endothelial cell growth supplement (ECGS), and 0.1 mg/mL heparin). Exponentially-growing HUVEC cells were used in experiments thereafter. Ten to twelve thousand HUVEC cells were plated in 96-well dishes in […] of rich, culture medium (described above). The cells were allowed to attach for 24 hours in this medium. The medium was then removed by aspiration and […] of starvation media (F12K+1% FBS) was added to each well. After 24 hours, […] of test agent dissolved in 1% DMSO in starvation medium or this vehicle alone was added into each treatment well; the final DMSO concentration was 0.1%. One hour later, […] of VEGF (30 ng/mL) in starvation media was added to all wells except those containing untreated controls; the final VEGF concentration was 6 ng/mL. Cellular proliferation was quantified 72 hours later by MTT dye reduction, at which time cells were exposed for 4 hours MTT (Promega Corp.). Dye reduction was stopped by addition of a stop solution (Promega Corp.) and absorbance at 595 nm was determined on a 96-well spectrophotometer plate reader.

[2] = biological target: T1, FGF-R1 intracellular kinase domain (Homo sapiens, UniProt P11362, C488A/C584S/L457V); assay: FGF-R spectrophotometric assay; type: biochemical; conditions: 50 nM test compound; read-out: FGF-P (% inh @ 50 nM)
T1 construct: starting from the endogenous methionine residue 456 to glutamate 766; made in house; host or cells: baculovirus vector expression system
T1 sequence (P11362 456-766 L457V/C488A/C584S): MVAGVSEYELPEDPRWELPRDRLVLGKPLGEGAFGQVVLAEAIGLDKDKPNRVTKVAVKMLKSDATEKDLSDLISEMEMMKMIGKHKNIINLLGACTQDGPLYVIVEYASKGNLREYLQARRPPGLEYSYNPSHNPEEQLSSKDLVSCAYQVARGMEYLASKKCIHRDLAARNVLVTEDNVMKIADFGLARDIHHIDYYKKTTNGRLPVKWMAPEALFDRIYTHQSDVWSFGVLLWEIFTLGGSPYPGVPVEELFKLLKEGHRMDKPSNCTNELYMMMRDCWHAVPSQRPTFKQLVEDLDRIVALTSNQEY
Experimental: The intracellular kinase domain of human FGF-R1 was expressed using the baculovirus vector expression system starting from the endogenous methionine residue 456 to glutamate 766, according to the residue numbering system of Mohammadi et al., Mol. Cell. Biol., 16, 977–989 (1996). In addition, the construct also has the following 3 amino acid substitutions: L457V, C488A, and C584S.
The spectrophotometric assay was carried out as described above for VEGF-R2, except for the following changes in concentration: FGF-R=50 nM, ATP=2 mM, and poly(E4Y1)=15 mM.

[3] = biological target: T2, unphosphorylated VEGF-R2D50 (FLVK), cytosolic domain of human VEGF-R2 (Homo sapiens, UniProt P35968, DEL940-989/E990V); assay: VEGF-R2 coupled spectrophotometric assay (FLVK); type: biochemical
T2 construct: VEGF-R2D50 contains residues 806–939 and 990–1171; made in house; host or cells: baculovirus/insect cell system
T2 sequence (P35968 with tags, fused parts or gaps DEL940-989/E990V limits assumed): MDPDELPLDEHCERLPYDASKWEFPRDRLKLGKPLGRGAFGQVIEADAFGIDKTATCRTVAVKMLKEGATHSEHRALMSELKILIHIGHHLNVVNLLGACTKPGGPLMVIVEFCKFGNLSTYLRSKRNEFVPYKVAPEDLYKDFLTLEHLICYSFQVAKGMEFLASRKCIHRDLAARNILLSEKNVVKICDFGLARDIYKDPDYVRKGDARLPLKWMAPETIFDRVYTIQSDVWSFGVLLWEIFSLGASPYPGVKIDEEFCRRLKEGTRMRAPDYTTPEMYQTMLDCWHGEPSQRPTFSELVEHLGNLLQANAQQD
Excerpt: This construct determines the ability of a test compound to inhibit tyrosine kinase activity. A construct (VEGF-R2D50) of the cytosolic domain of human vascular endothelial growth factor receptor 2 (VEGF-R2) lacking the 50 central residues of the 68 residues of the kinase insert domain was expressed in a baculovirus/insect cell system. Of the 1356 residues of full-length VEGF-R2, VEGF-R2D50 contains residues 806–939 and 990–1171, and also one point mutation (E990V) within the kinase insert domain relative to wild-type VEGF-R2. Autophosphorylation of the purified construct was performed by incubation of the enzyme at a concentration of […] in the presence of 3 mM ATP and 40 mM MgCl2 in 100 mM HEPES, pH 7.5, containing 5% glycerol and 5 mM DTT, at 4° C. for 2 h. […] See Parast et al., Biochemistry, 37, 16788–16801 (1998).
The production of ADP from ATP that accompanies phosphoryl transfer was coupled to oxidation of NADH using phosphoenolpyruvate (PEP) and a system having pyruvate kinase (PK) and lactic dehydrogenase (LDH). The oxidation of NADH was monitored by following the decrease of absorbance at 340 nm (e340=6.22 cm^−1 mM^−1) using a Beckman DU 650 spectrophotometer. Assay conditions for phosphorylated VEGF-R2D50 (indicated as FLVK-P in the tables below) were the following: 1 mM PEP; […]; 50 units of LDH/mL; 20 units of PK/mL; 5 mM DTT; 5.1 mM poly(E4Y1); 1 mM ATP; and 25 mM MgCl2 in 200 mM HEPES, pH 7.5. Assay conditions for unphosphorylated VEGF-R2D50 (indicated as FLVK in the tables) were the following: 1 mM PEP; […]; 50 units of LDH/mL; 20 units of PK/mL; 5 mM DTT; 20 mM poly(E4Y1); 3 mM ATP; and 60 mM MgCl2 and 2 mM MnCl2 in 200 mM HEPES, pH 7.5. Assays were initiated with 5 to 40 nM of enzyme. Ki values were determined by measuring enzyme activity in the presence of varying concentrations of test compounds. The percent inhibition at 50 nm (% inhibition@50 nm) was determined by linear least-squares regression analysis of absorpbance as a function of time. The binding inhibitions were fitted to equation as described by Morrison. The data were analyzed using Enzyme Kinetic and Kaleidagraph software.

| SMILES | inhibition at 0.05 µM [2] | Ki [3] | IC50 [1] |
| --- | --- | --- | --- |
| Cc1cc(NC(=O)Cc2ccc(Oc3ccnc4cc(C(=O)N5CCC5)sc34)cc2Cl)nn1C [Example 56, 2-{4-[2-(Azetidine-1-carbonyl)-thieno[3,2-b]pyridin-7-yloxy]-2-chloro-phenyl}-N-(1,5-dimethyl-1H-pyrazol-3-yl)-acetamide] | 0 to 5% | – | > 10 nM |
| CNC(=O)C(O)c1ccc(Oc2ccnc3cc(C(=O)N4CCC4)sc23)cc1 (centres unmarked) [Example 74, 2-{4-[2-(Azetidine-1-carbonyl)-thieno[3,2-b]pyridin-7-yloxy]-phenyl}-2-hydroxy-N-methyl-acetamide] | 0 to 5% | 1 to 10 nM | > 10 nM |
| O=C(Cc1ccc(Oc2ccnc3cc(C(=O)N4CCC4)sc23)cc1)Nc1ccc2[nH]ncc2c1 [Example 36, 2-{4-[2-(Azetidine-1-carbonyl)-thieno[3,2-b]pyridin-7-yloxy]-phenyl}-N-(1H-indazol-5-yl)-acetamide] | 0 to 5% | – | > 10 nM |
| Cc1cc(NC(=O)Cc2ccc(Oc3ccnc4cc(C(=O)N5CCC5)sc34)cc2)no1 [Example 41, 2-{4-[2-(Azetidine-1-carbonyl)-thieno[3,2-b]pyridin-7-yloxy]-phenyl}-N-(5-methyl-isoxazol-3-yl)-acetamide] | 5 to 10% | 1 to 10 nM | 1 to 10 nM |
| O=C(Cc1ccc(Oc2ccnc3cc(C(=O)N4CCC4)sc23)cc1)Nc1ccc(C(F)(F)F)cn1 [Example 27, 2-{4-[2-(Azetidine-1-carbonyl)-thieno[3,2-b]pyridin-7-yloxy]-phenyl}-N-(5-trifluoromethyl-pyridin-2-yl)-acetamide] | 0 to 5% | < 1 nM | 1 to 10 nM |
| O=C(Cc1ccc(Oc2ccnc3cc(C(=O)N4CCC4)sc23)cc1)Nc1ccc(F)cn1 [Example 29, 2-{4-[2-(Azetidine-1-carbonyl)-thieno[3,2-b]pyridin-7-yloxy]-phenyl}-N-(5-fluoro-pyridin-2-yl)-acetamide] | 0 to 5% | 1 to 10 nM | > 10 nM |
| Cc1cc(C)nc(NC(=O)Cc2ccc(Oc3ccnc4cc(C(=O)N5C[C@@H](O)[C@@H](O)C5)sc34)cc2)c1 [Example 3] | 0 to 5% | – | < 1 nM |
| O=C(Cc1ccc(Oc2ccnc3cc(C(=O)N4CCC4)sc23)cc1)Nc1ccc(N2CCOCC2)nc1 [Example 38, 2{-4-[2-(Azetidine-1-carbonyl)-thieno[3,2-b]pyridin-7-yloxy]-phenyl}-N-(6-morpholin-4-yl-pyridin-3-yl)-acetamide] | 0 to 5% | – | > 10 nM |
| CNC(=O)C(O)c1ccc(Oc2ccnc3cc(-c4nc(C(C)(C)O)cs4)sc23)cc1 (centres unmarked) [Example 75, 2-Hydroxy-2-(4-{2-[4-(1-hydroxy-1-methyl-ethyl)-thiazol-2-yl]-thieno[3,2-b]pyridin-7-yloxy}-phenyl)-N-methyl-acetamide] | 0 to 5% | > 10 nM | – |
| CNC(=O)Cc1ccc(Oc2ccnc3cc(C(=O)N4CC[C@@H](O)C4)sc23)cc1Cl [Example 64, 2-{2-Chloro-4-[2-((R)-3-hydroxy-pyrrolidine-1-carbonyl)-thieno[3,2-b]pyridin-7-yloxy]-phenyl}-N-methyl-acetamide] | 0 to 5% | > 10 nM | – |
| CNC(=O)Cc1ccc(Oc2ccnc3cc(C(=O)N4CCC4)sc23)cc1Cl [Example 63, 2-{4-[2-(Azetidine-1-carbonyl)-thieno[3,2-b]pyridin-7-yloxy]-2-chloro-phenyl}-N-methyl-acetamide] | 0 to 5% | > 10 nM | – |
| Cc1coc(NC(=O)Cc2ccc(Oc3ccnc4cc(C(=O)N5CCC5)sc34)cc2Cl)n1 [Example 54, 2-{4-[2-(Azetidine-1-carbonyl)-thieno[3,2-b]pyridin-7-yloxy]-2-chloro-phenyl}-N-(4-methyl-oxazol-2-yl)-acetamide] | 0 to 5% | > 10 nM | – |
| CNC(=O)Cc1ccc(Oc2ccnc3cc(-c4nccn4C)sc23)cc1Cl [Example 65, 2-{2-Chloro-4-[2-(1-methyl-1H-imidazol-2-yl)-thieno[3,2-b]pyridin-7-yloxy]-phenyl}-N-methyl-acetamide] | 0 to 5% | > 10 nM | – |
| Cc1cc(C)nc(NC(=O)Cc2ccc(Oc3ccnc4cc(C(=O)N5CCC5)sc34)cc2)c1 [Example 22, 2-{4-[2-(Azetidine-1-carbonyl)-thieno[3,2-b]pyridin-7-yloxy]-phenyl}-N-(4,6-dimethyl-pyridin-2-yl)-acetamide] | 0 to 5% | – | < 1 nM |

Further lines, with some results ahead:

| inhibition at 0.05 µM [2] | Ki [3] | SMILES | IC50 [1] |
| --- | --- | --- | --- |
| 5 to 10% | < 1 nM | Cc1cccc(NC(=O)Cc2ccc(Oc3ccnc4cc(C(=O)N5CCC5)sc34)cc2)n1 [Example 25, 2-{4-[2-(Azetidine-1-carbonyl)-thieno[3,2-b]pyridin-7-yloxy]-phenyl}-N-(6-methyl-pyridin-2-yl)-acetamide] | 1 to 10 nM |
| 5 to 10% | < 1 nM | Cc1cc(C)nc(NC(=O)Cc2ccc(Oc3ccnc4cc(C(=O)N(C)C)sc34)cc2)c1 [Example 7, 7-{4-[(4,6-Dimethyl-pyridin-2-ylcarbamoyl)-methyl]-phenoxy}-thieno[3,2-b]pyridine-2-carboxylic acid dimethylamide] | < 1 nM |
| 5 to 10% | < 1 nM | O=C(Cc1ccc(Oc2ccnc3cc(C(=O)N4CC[C@@H](O)C4)sc23)cc1)Nc1ccc(C(F)(F)F)cn1 [Example 18, 2-{4-[2-((R)-3-Hydroxy-pyrrolidine-1-carbonyl)-thieno[3,2-b]pyridin-7-yloxy]-phenyl}-N-(5-trifluoromethyl-pyridin-2-yl)-acetamide] | > 10 nM |
| 5 to 10% | < 1 nM | Cn1ccnc1-c1cc2nccc(Oc3ccc(CC(=O)Nc4cc5ccccc5cn4)cc3)c2s1 [Example 12, N-Isoquinolin-3-yl-2-(4-[2-(1-methyl-1H-imidazol-2-yl)-thieno[3,2-b]pyridin-7-yloxy]-phenyl}-acetamide] | > 10 nM |
| 5 to 10% | < 1 nM | O=C(Cc1ccc(Oc2ccnc3cc(C(=O)N4CCC4)sc23)cc1)Nc1ccc(Cl)cn1 [Example 28, 2-{4-[2-(Azetidine-1-carbonyl)-thieno[3,2-b]pyridin-7-yloxy]-phenyl}-N-(5-chloro-pyridin-2-yl)-acetamide] | < 1 nM |
| 0 to 5% | < 1 nM | O=C(Cc1ccc(Oc2ccnc3cc(C(=O)N4CCC4)sc23)cc1)Nc1cc2ccccc2cn1 [Example 31, 2-{4-[2-(Azetidine-1-carbonyl)-thieno[3,2-b]pyridin-7-yloxy]-phenyl}-N-isoquinolin-3-yl-acetamide] | < 1 nM |
